The text below walks through data of patent publication US20050209278A1, “Piperidinyl- and piperazinyl-sulfonylmethyl hydroxamic acids and their use as protease inhibitors” (priority 2002, published 2005).

Bounds are passed on as bounds.

The Ki is the equilibrium dissociation constant of an inhibitor or competing ligand from its target.

The target of test [1] is T1, MMP-2 (Homo sapiens, UniProt P08253).
T1 construct: made in house; host or cells: MMP-2-transfected p2AHT2 cells
T1 sequence (P08253 110-660): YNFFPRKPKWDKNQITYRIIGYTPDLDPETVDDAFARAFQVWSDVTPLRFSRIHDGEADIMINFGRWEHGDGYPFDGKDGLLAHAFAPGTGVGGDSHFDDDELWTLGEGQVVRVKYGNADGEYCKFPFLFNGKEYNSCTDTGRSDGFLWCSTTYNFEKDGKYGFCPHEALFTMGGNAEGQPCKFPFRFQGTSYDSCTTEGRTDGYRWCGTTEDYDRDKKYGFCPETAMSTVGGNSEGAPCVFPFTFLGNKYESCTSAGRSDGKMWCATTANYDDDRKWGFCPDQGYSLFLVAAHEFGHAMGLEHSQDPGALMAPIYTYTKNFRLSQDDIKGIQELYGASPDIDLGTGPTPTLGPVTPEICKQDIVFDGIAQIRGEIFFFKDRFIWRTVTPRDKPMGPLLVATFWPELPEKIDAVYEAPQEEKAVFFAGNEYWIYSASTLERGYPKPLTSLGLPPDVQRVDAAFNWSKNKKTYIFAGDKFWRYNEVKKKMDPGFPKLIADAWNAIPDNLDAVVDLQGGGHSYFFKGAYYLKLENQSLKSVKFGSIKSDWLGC
The experiment in a line: In vitro MMP inhibition, Ki determination (fluorogenic substrate II). Format: biochemical. Conditions: value not in parenthesis; read-out: MMP-2 Ki.

For test [2], the target named is T2, MMP-9 (Homo sapiens, UniProt P14780).
T2 construct: made in house; host or cells: MMP-9-transfected HT1080 cells (spent media)
Described as above. Format: biochemical. The settings on record: value not in parenthesis. The procedure, abridged:
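HT1080-derived MMP-9, activated with APMA, trypsin or MMP-3, incubated 1 hr at room temperature with inhibitor and 4 μM fluorogenic substrate II (at or below Km) in pH 7.5 Tris/NaCl/CaCl2 buffer; ex 330/em 420 nm. Ki from Morrison-equation regression, without substrate correction.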

T2 sequence (P14780 107-707 limits assumed): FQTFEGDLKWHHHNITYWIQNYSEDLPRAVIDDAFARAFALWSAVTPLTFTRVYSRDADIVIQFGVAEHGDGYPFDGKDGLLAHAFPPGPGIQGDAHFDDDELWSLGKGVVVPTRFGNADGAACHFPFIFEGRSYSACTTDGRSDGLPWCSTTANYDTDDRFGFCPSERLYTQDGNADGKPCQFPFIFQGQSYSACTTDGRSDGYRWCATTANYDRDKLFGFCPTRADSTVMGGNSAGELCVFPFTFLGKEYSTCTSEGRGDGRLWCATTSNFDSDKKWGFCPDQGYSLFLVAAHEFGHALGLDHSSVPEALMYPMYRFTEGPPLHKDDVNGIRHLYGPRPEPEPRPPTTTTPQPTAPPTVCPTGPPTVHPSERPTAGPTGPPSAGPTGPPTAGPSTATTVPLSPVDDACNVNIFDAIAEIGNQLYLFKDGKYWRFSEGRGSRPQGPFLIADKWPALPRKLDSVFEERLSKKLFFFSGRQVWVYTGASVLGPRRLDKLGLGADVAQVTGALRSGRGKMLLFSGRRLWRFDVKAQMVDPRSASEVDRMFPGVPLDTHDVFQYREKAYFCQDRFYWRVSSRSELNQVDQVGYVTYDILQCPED

With `O=C(NO)C1(S(=O)(=O)N2CCN(c3nncs3)CC2)CCOCC1` [Example 215], the Ki in test [1] was 2370 nM; in test [2], greater than 10000 nM.
The corresponding values for `CCCc1nnc(N2CCN(S(=O)(=O)C3(C(=O)NO)CCOCC3)CC2)s1` [Example 216] are 214 nM and 596 nM.
Turning to `CCCCc1ccc(N2CCN(S(=O)(=O)C(C)C(=O)NO)CC2)nc1` (centres unmarked) [Example 217], the inhibitory constant (Ki) in test [1] was 0.29 nM; in test [2], 0.45 nM.
Regarding `O=C(NO)C1(S(=O)(=O)N2CCN(c3cnc(CCC(F)(F)F)cn3)CC2)CCOCC1` [Example 218], the results for the Ki in test [1] and in test [2] were 1.39 nM and 2.29 nM, respectively.
For `CCCCCc1cnc(N2CCN(S(=O)(=O)C3(C(=O)NO)CCOCC3)CC2)cn1` [Example 219], in that order: 2.5 nM and 0.46 nM.
`CCCCOc1ccc(N2CCN(S(=O)(=O)C3(C(=O)NO)CCN(c4ccc5c(c4)OCO5)CC3)CC2)cc1` [Example 221]: the Ki is 8.53 nM in test [1] and 14.6 nM in test [2].
The corresponding values for `CCCCOc1ccc(N2CCN(S(=O)(=O)C3(C(=O)NO)CCS(=O)(=O)CC3)CC2)cc1` [Example 222] are 7.88 nM and 21.5 nM.
Regarding `CCCCOc1ccc(N2CCN(S(=O)(=O)C3(C(=O)NO)CCN(c4ccsc4)CC3)CC2)cc1` [Example 223], the Ki is 3.46 nM in test [1] and 66.1 nM in test [2].
For `CCCCOc1ccc(N2CCN(S(=O)(=O)C3(C(=O)NO)CCN(c4ccc(C#N)cc4)CC3)CC2)cc1` [Example 225], in that order: 9.28 nM and 28.1 nM.
Turning to `CCCCOc1ccc(N2CCN(S(=O)(=O)C3(C(=O)NO)CCN(c4cccc(C)c4)CC3)CC2)cc1` [Example 226], the results for the Ki in test [1] and in test [2] were 10.4 nM and 19 nM, respectively.
As to `COCCSc1ccc(N2CCN(S(=O)(=O)C3(C(=O)NO)CCOCC3)CC2)cc1` [Example 227], the Ki in test [1] stood at 2.47 nM; in test [2], 17.2 nM.
For `CCCCOc1ccc(N2CCN(S(=O)(=O)C3(C(=O)NO)CCN(c4ccc(OC)c(OC)c4)CC3)CC2)cc1` [Example 229], the Ki in test [1] is 2.67 nM; in test [2] it was 4.64 nM.
Consider `CCCCOc1ccc(N2CCN(S(=O)(=O)C3(C(=O)NO)CCN(C(=O)N4CCN(C)CC4)CC3)CC2)cc1` [Example 230], for which the Ki in test [1] was 0.46 nM; in test [2] it was 0.87 nM.
For `CCCCOc1ccc(N2CCN(S(=O)(=O)C3(C(=O)NO)CCN(C(=O)N4CCCC4)CC3)CC2)cc1` [Example 231], in that order: 1.32 nM and 0.71 nM.
Take `CCCCOc1ccc(N2CCN(S(=O)(=O)C3(C(=O)NO)CCSCC3)CC2)cc1` [Example 232]: the Ki in test [1] was determined as 26.5 nM; in test [2] it was 2.3 nM.
The corresponding values for `CCCCOc1ccc(N2CCN(S(=O)(=O)C3(C(=O)NO)CCN(CCN4CCOCC4)CC3)CC2)cc1` [Example 233] are 0.771 nM and 0.972 nM.
The corresponding values for `CCOCCSc1ccc(N2CCN(S(=O)(=O)C3(C(=O)NO)CCOCC3)CC2)cc1` [Example 234] are 3.16 nM and 33.6 nM.
Consider `CCCCOc1ccc(N2CCN(S(=O)(=O)C3(C(=O)NO)CCN(CCN(CC)CC)CC3)CC2)cc1` [Example 235], for which the inhibition constant Ki in test [1] came out at 0.76 nM; in test [2] it was 0.9 nM.
For the compound `CCCCCc1ccc(N2CCN(S(=O)(=O)C3(C(=O)NO)CCN(S(=O)(=O)N(C)C)CC3)CC2)cc1` [Example 236], the Ki in test [1] is 2.58 nM; in test [2], 2.61 nM.
As for `CCCCCc1ccc(N2CCN(S(=O)(=O)C3(C(=O)NO)CCN(S(C)(=O)=O)CC3)CC2)cc1` [Example 237], the results for the Ki in test [1] and in test [2] were 2.03 nM and 2.79 nM, respectively.
For `CCCCOc1ccc(N2CCN(S(=O)(=O)C3(C(=O)NO)CCN(CCCC(F)(F)F)CC3)CC2)cc1` [Example 238], in that order: 1.63 nM and 2.49 nM.
Turning to `CCCCCc1ccc(N2CCN(S(=O)(=O)C3(C(=O)NO)CCN(C(C)=O)CC3)CC2)cc1` [Example 239], the Ki in test [1] amounted to 0.54 nM; in test [2] it was 0.46 nM.
`CCCCOc1ccc(N2CCN(S(=O)(=O)C3(C(=O)NO)CCN(C(=O)NC(C)(C)C)CC3)CC2)cc1` [Example 240]: the Ki in test [1] stood at 0.536 nM; in test [2], 1.03 nM.
`CCCCOc1ccc(N2CCN(S(=O)(=O)C3(C(=O)NO)CCN(c4ccc(N(C)C)cc4)CC3)CC2)cc1` [Example 241]: the Ki in test [1] was 3.64 nM; in test [2], 4.74 nM.
The corresponding values for `CCCCOc1ccc(N2CCN(S(=O)(=O)C3(C(=O)NO)CCN(C(=O)N(CC)CC)CC3)CC2)cc1` [Example 242] are 0.591 nM and 1.14 nM.
For `CCCCOc1ccc(N2CCN(S(=O)(=O)C3(C(=O)NO)CCN(C(=O)N4CCCCC4)CC3)CC2)cc1` [Example 243], in that order: 0.34 nM and 0.7 nM.
For `CCCCOc1ccc(N2CCN(S(=O)(=O)C3(C(=O)NO)CCN(C(=O)N(C(C)C)C(C)C)CC3)CC2)cc1` [Example 244], in that order: 1.57 nM and 3.9 nM.
On to `CCCCOc1ccc(N2CCN(S(=O)(=O)C3(C(=O)NO)CCN(Cc4nccn4C)CC3)CC2)cc1` [Example 245], for which the Ki amounted to 0.475 nM in test [1] and 0.588 nM in test [2].
As for `CCCCOc1ccc(N2CCN(S(=O)(=O)C3(C(=O)NO)CCN(Cc4ccc(C)o4)CC3)CC2)cc1` [Example 246], the results for the Ki in test [1] and in test [2] were 1.2 nM and 1.74 nM, respectively.
As for `CCCCOc1ccc(N2CCN(S(=O)(=O)C3(C(=O)NO)CCN(Cc4ncc[nH]4)CC3)CC2)cc1` [Example 247], the figures for the Ki in test [1] and in test [2] were 0.686 nM and 0.718 nM, respectively.
The corresponding values for `CCCCOc1ccc(N2CCN(S(=O)(=O)C3(C(=O)NO)CCN(c4ccc(OC)cc4)CC3)CC2)cc1` [Example 249] are 4.98 nM and 11.3 nM.
